Data on 2 molecules can be found in publication PMC6700223 (Frontiers in Microbiology, 2019).

For the assay, the target named is HR1-1 peptide (HR1 domain of LASV GP2) (Lassa virus, UniProt P08669). The assay is described as follows: biochemical. It counts as binding.

The structures appear in SMILES notation.

HR1-1 peptide (HR1 domain of LASV GP2), sequence (P08669 296-345 limits assumed): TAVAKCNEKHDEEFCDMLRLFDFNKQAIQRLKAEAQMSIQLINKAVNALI

On to `CC[C@H](C)[C@H](NC(=O)[C@H](CC(=O)O)NC(=O)[C@H](CC(=O)O)NC(=O)[C@H](CO)NC(=O)[C@H](Cc1ccccc1)NC(=O)[C@H](Cc1c[nH]cn1)NC(=O)[C@@H](NC(=O)[C@H](CCC(=O)O)NC(=O)[C@H](CC(N)=O)NC(=O)[C@H](CC(C)C)NC(=O)[C@H](Cc1ccc(O)cc1)NC(=O)[C@@H](N)CO)[C@@H](C)O)C(=O)N[C@@H](CCC(=O)O)C(=O)N[C@@H](CCC(N)=O)C(=O)N[C@@H](CCC(N)=O)C(=O)N[C@@H](C)C(=O)N[C@@H](CC(=O)O)C(=O)N[C@@H](CC(N)=O)C(=O)N[C@@H](CCSC)C(=O)N[C@H](C(=O)N[C@H](C(=O)N[C@@H](CCC(=O)O)C(=O)N[C@@H](CCSC)C(=O)N[C@@H](CC(C)C)C(=O)N[C@@H](CCC(N)=O)C(=O)N[C@@H](CCCCN)C(=O)N[C@@H](CCC(=O)O)C(=O)N[C@@H](Cc1ccc(O)cc1)C(=O)N[C@@H](CCSC)C(=O)N[C@@H](CCC(=O)O)C(=O)N[C@@H](CCCNC(=N)N)C(=O)N[C@@H](CCC(N)=O)C(=O)NCC(=O)N[C@@H](CCCCN)C(=O)N[C@H](C(=O)N1CCC[C@H]1C(=O)N[C@@H](CC(C)C)C(=O)O)[C@@H](C)O)[C@@H](C)O)[C@@H](C)CC` [HR2-2], for which the “Binding to HR1-1 peptide (in words)” value is given as “strongly bind”. Also, the Response (concentration 3.75 μM) is recorded as 0.0341 nm. Moreover, the Response (concentration 7.5 μM) is reported as 0.0743 nm. Further, where the note is “concentration 15 μM”, the Response turned out to be 0.0958 nm. The Response (concentration 30 μM) is 0.119 nm.
On to `CC[C@H](C)[C@H](NC(=O)[C@H](CC(=O)O)NC(=O)[C@H](CC(=O)O)NC(=O)[C@H](CO)NC(=O)[C@H](Cc1ccccc1)NC(=O)[C@H](Cc1c[nH]cn1)NC(=O)[C@@H](N)[C@@H](C)O)C(=O)N[C@@H](CCC(=O)O)C(=O)N[C@@H](CCC(N)=O)C(=O)N[C@@H](CCC(N)=O)C(=O)N[C@@H](C)C(=O)N[C@@H](CC(=O)O)C(=O)N[C@@H](CC(N)=O)C(=O)N[C@@H](CCSC)C(=O)N[C@H](C(=O)N[C@H](C(=O)N[C@@H](CCC(=O)O)C(=O)N[C@@H](CCSC)C(=O)N[C@@H](CC(C)C)C(=O)N[C@@H](CCC(N)=O)C(=O)N[C@@H](CCCCN)C(=O)N[C@@H](CCC(=O)O)C(=O)N[C@@H](Cc1ccc(O)cc1)C(=O)N[C@@H](CCSC)C(=O)N[C@@H](CCC(=O)O)C(=O)O)[C@@H](C)O)[C@@H](C)CC` [HR2-3], for which the kon was determined as 1420 M⁻¹ s⁻¹. Also, for the setting “read-out: Kdis”, the koff was 0.0823 s⁻¹.

The kon is the second-order rate constant of association.
